Tests used:
[1] = test system: cross-linking of glycated bovine serum albumin (AGE-BSA) to rat tail tendon collagen; assay: Cross-linking Inhibition Assay; details: at 10 mM
Method: The following method was used to evaluate the ability of the compounds of the present invention to inhibit the cross-linking of glycated bovine serum albumin (AGE-BSA) to the rat tail tendon collagen-coated 96-well plate.
The blocking solution was removed from the wells by, washing the plate twice with PBS-'Tween 20 solution (0.05% Tween 20) using a NUNq-multiprobe or Dynatech ELISA-plate washer. Cross-linking of AGE-BSA (1 to 10 mg per well depending on the batch of AGE-BSA) to rat tail tendon collagen coated plate was performed with and without the testing ‘compound dissolved in PBS buffer at pH 7.4 at the desired concentrations by the, addition of 50 μl each of the AGE-BSA diluted in PBS or in the solution of test compound at 37° C. for 4 hours. Unbrowned BSA in PBS buffer with or without testing compound were added to the separate wells as the blanks. The un-cross-linked AGE-BSA was then removed by washing the wells three times with PBS-Tween buffer. The amount of AGE-BSA cross-linked to the tail tendon collagen-coated plate was then quantitated using a polyclonal antibody raised against AGE-RNase. After a one-hour incubation period, AGE antibody was removed by washing 4 times with PBS-Tween.
The bound AGE antibody was then detected with the addition of horseradish peroxidase-conjugated secondary antibody—goat anti-rabbit immunoglobulin and incubation for 30 minutes. […] The reaction was allowed for an additional 15 minutes and the absorbance was read at 410 nm in a Dynatech plate reader.

[2] = test system: AGE-BSA crosslinked to collagen; assay: Cross-link Breaking Assay (sandwich enzyme immunoassay); format: biochemical; details: at 10 mM
Method: The present invention also involves a novel sandwich enzyme immunoassay used to ascertain the ability of test compounds to “break” or reverse already formed advanced glycosylation endproducts by detecting the breaking of AGE (Advanced glycosylation endproduct) moieties from AGE-crosslinked protein. This assay comprises: • a) incubation of AGE-modified bovine serum albumin (AGE BSA) on collagen-coated wells of microtiter plates for a period of 2–6 hours' at a temperature of 37° C.; • b) washing of the wells with PBS-Tween; • c) application of the test compounds to the washed wells of step b; • d) incubation of the test compounds applied to the washed wells for an additional 12–24 hours at a temperature of about 37° C.; and • e) detection of the AGE-breaking using an antibody raised against AGE-ribonuclease or cross-link breaking with an antibody against BSA.
In order to ascertain the ability of the compounds of the instant invention to “break” or reverse already formed advanced glycosylation endproducts, a novel sandwich enzyme immunoassay was developed which detects breaking of AGE (Advanced glycosylation endproduct) moieties from AGE-crosslinked protein. The assay utilizes collagen-coated 96 well microtiter plates that are obtained commercially. […] Following an incubation period of 16 hours (37° C.) cross-link-breaking is detected using an antibody raised against AGE-ribonuclease or with an antibody against BSA. […] Details of the assay are as follows:
Methods Preparation of Solutions and Buffers • 1. AGE-BSA stock solutions were prepared as follows. Sodium phosphate buffer (0.4 M) was prepared by dissolving 6 grams of monobasic sodium phosphate in 100 ml of distilled water, 7 grams of dibasic sodium phosphate (0.4 M) in 100 ml of distilled water and adjusting the pH of the dibasic solution to 7.4 with the monobasic solution. Sodium azide (0.02 grams) was added per 100 ml volume to inhibit bacterial growth. The BSA solution was prepared as follows: 400 mg of Type V BSA (bovine serum albumin) was added for each ml of sodium phosphate buffer (above). A 400 mM glucose solution was prepared by dissolving 7.2 grams of dextrose in 100 ml of sodium phosphate buffer (above). The BSA and glucose solutions were mixed 1:1 and incubated at 37° C. for 12 weeks. The pH of the incubation mixture was monitored weekly and adjusted to pH 7.4 if necessary. After 12 weeks, the AGE-BSA solution was dialyzed against PBS for 48 hours with four buffer changes, each at a 1:500 ratio of solution to dialysis buffer. Protein concentration was determined by the micro-Lowry method. The AGE-BSA stock solution was aliquoted and stored at −20° C. […] Working solutions for crosslinking and breaking studies were prepared as follows. Test compounds were dissolved in PBS and the pH was adjusted to pH 7.4 if necessary. AGE-BSA stock solution was diluted in PBS to measure maximum crosslinking and in the inhibitor solution for testing inhibitory activity of compounds. The concentration of AGE-BSA necessary to achieve the optimum sensitivity was determined by initial titration of each lot of AGE-BSA. • 3. Wash buffer (“PBS-Tween”) was, prepared as follows. PBS was prepared by dissolving the following salts in one liter of distilled water: NaCl, 8 grams; KC1, 0.2 gram, KH2PO4. […] Tween-20 was added to a final concentration of 0.05% (vol/vol). • 4. Substrates for detection of secondary antibody binding were prepared by diluting the HRP substrate buffer 1:10 in distilled water and mixing with ABTS chromogen 1:50 just prior to use. Assay Procedures • 1. Biocoat plates were blocked with 300 μl of “Superbloc”. Plates were blocked for one hour at room temperature and were washed with PBS-Tween three times with the Dynatech platewasher before addition of test reagents. • 2. Each experiment was set up in the following manner. The first three wells of the Biocoat plate were used for the reagent blank.

[3] = test system: IgG crosslinked to circulating red blood cells; assay: RBC-IgG Assay in streptozotocin-induced diabetic rats; format: in vivo, rat; details: diabetic rats dosed orally at 10 mg/kg body weight; 19 days
Method: The test compounds are administered to the test animals either orally or intraperitoneally, and the blood samples are collected are tested at various times, e.g. 4, 7 or 19 days, after administration to assess efficacy.
Blood is collected from the rats in heparinized tubes and spun at 2000×g for 10 minutes, and the plasma carefully removed. Then, about 5 ml of PBS per ml blood is added, gently mixed, and then spun again. The supernatant is then removed by aspiration. The wash is then repeated two more times. Then, 0.2 to 0.3 ml of packed RBC is withdrawn from the bottom of the tube, using a pipette, and added to the PBS to make a 1 to 10 dilution. This dilution is then further diluted 1 to 25 and 1 to 50 in PBS. • B. Assay Set Up. • 1. Warm Superbloc to 37° C. • 2. Take a plate of Multiscreen-HA, 0.45 u. Cellulose ester membrane-sealed 96 well plate (Millipore MARAS45). • 3. Wet the wells with 100 μl of PBS. • 4. Add 300 μl of superblock to each well and incubate at 37° C. for one hour. • 5. Place the plate on the Millititer Vacuum holder, turn on the vacuum and press the plate down once for tight hold. The liquids in the wells will be suctioned off. Wash the wells with 300 μl of PBS-Tween 0.05%. • 6. Turn off the vacuum and add 100 μl of PBS to each well. • 7. […] Read OD of the solution collected in the Coming plate on Dynatech Plate reader Sample filter 1 and Ref. filter 4. • 17. […]

[4] = test system: aortic wall protein cross-linking; details: diabetic rats; cited from earlier work
[5] = test system: glomerular basement membrane thickness; details: streptozotocin-diabetic rat model; cited from earlier work
red blood cells = details: in vivo; cited from earlier work
[6] = test system: immunoglobulin trapping in the kidney; details: in vivo; cited from earlier work

SMILES | Relative Cross-link Inhibition (at 10 mM) [1] | Breaking Anti-AGE ([2]; anti-AGE antibody) | Breaking Anti-BSA ([2]; anti-BSA antibody) | Percent Inhibition (RBC-IgG) [3] | aortic wall protein cross-linking [4] | increased glomerular basement membrane thickness [5] | diabetes-induced changes in the deformability of red blood cells (red blood cells) | immunoglobulin trapping in the kidney [6]
Cc1c(CCO)sc[n+]1CC(=O)c1ccc2ccccc2c1.[Br-] [3-(2-(2′-naphthyl)-2-oxoethyl]-4-methyl-5-(2′-hydroxyethyl)-thiazolium bromide] | 61% | 52% | 61% | 40 ± 24 @ 19 days % | – | – | – | –
N=C(N)NN [aminoguanidine] | – | – | – | – | diminishes | prevented | prevent | reduction

Source: patent US7022719B2, “Preventing and reversing the formation of advance glycosylation endproducts” (Alteon, Inc., priority 1995, dated 2006)
